This data set can be described thus: HILIC, Waters Atlantis Premier BEH Z-HILIC, 100 × 2.1 mm, 1.7 µm, 40 °C, 0.15 mL/min, estimated dead time 1.5 min; A: water + 20 mM ammonium carbonate + 5 µM medronic acid; B: 10% water + 90% acetonitrile + 2 mM ammonium carbonate + 0.5 µM medronic acid; gradient (min/%B) 0/100 18/55 18.1/20 21.5/20 22/100 23.5/100 25.5/100. Particulars: stereoisomer not certain.

Regarding `O=C(O)CCC(=O)C(=O)O` [2-Oxoglutaric acid], the LC retention time was 8.62 min.

As for `O=C(O)CCC(O)C(=O)O` (stereo not given) [2-hydroxy glutaric acid], the LC retention time is 9.58 min.

In the case of `Nc1ncnc2c1ncn2C1OC(COP(=O)(O)OP(=O)(O)O)C(O)C1O` (stereo not given) [ADP], the LC retention time is 11.9 min.

`Nc1ncnc2c1ncn2C1OC(COP(=O)(O)O)C(O)C1O` (stereo not given) [AMP]: the LC retention time was 8.82 min.

On to `Nc1ncnc2c1ncn2C1OC(COP(=O)(O)OP(=O)(O)OP(=O)(O)O)C(O)C1O` (stereo not given) [ATP], for which the LC retention time is 14.3 min.

Take `CC(=O)SCCNC(=O)CCNC(=O)C(O)C(C)(C)COP(=O)(O)OP(=O)(O)OCC1OC(n2cnc3c(N)ncnc32)C(O)C1OP(=O)(O)O` (stereo not given) [Acetyl-CoA]: the LC retention time was 9.49 min.

For the molecule `Nc1ncnc2c1ncn2C1OC(CO)C(O)C1O` (stereo not given) [Adenosine], the LC retention time is 3.65 min.

Consider `O=C(O)CCCCC1SCC2NC(=O)NC21` (stereo not given) [Biotin], for which the LC retention time is 4.6 min.

Take `C[N+](C)(C)CC(O)CC(=O)[O-]` (stereo not given) [Carnitine]: the LC retention time was 9.95 min.

With `O=C(O)CC(O)(CC(=O)O)C(=O)O` [Citric acid], the LC retention time is 14.7 min.

As to `CC(C)(COP(=O)(O)OP(=O)(O)OCC1OC(n2cnc3c(N)ncnc32)C(O)C1OP(=O)(O)O)C(O)C(=O)NCCC(=O)NCCS` (stereo not given) [CoenzymeA], the LC retention time was 11.9 min.

For the molecule `Cc1cc2nc3c(=O)[nH]c(=O)nc-3n(CC(O)C(O)C(O)COP(=O)(O)OP(=O)(O)OCC3OC(n4cnc5c(N)ncnc54)C(O)C3O)c2cc1C` (stereo not given) [FAD], the LC retention time is 7.27 min.

Turning to `O=C(CO)C(O)C(O)C(O)COP(=O)(O)O` (stereo not given) [Fructose 6-phosphate], the LC retention time was 12 min.

Turning to `O=P(O)(O)OCC1OC(O)(COP(=O)(O)O)C(O)C1O` (stereo not given) [Fructose-1,6-bisphosphate], the LC retention time was 16.6 min.

For the molecule `Nc1nc2c(ncn2C2OC(COP(=O)(O)OP(=O)(O)OP(=O)(O)O)C(O)C2O)c(=O)[nH]1` (stereo not given) [GTP], the LC retention time was 17.1 min.

With `O=P(O)(O)OCC1OC(O)C(O)C(O)C1O` (stereo not given) [Glucose-6-phosphate], the LC retention time was 12.6 min.

Turning to `NC(CCC(=O)O)C(=O)O` (stereo not given) [Glutamic acid], the LC retention time was 9.29 min.

Consider `NC(=O)CCC(N)C(=O)O` (stereo not given) [Glutamine], for which the LC retention time is 10.4 min.

Turning to `O=P(O)(O)OCC(O)CO` (stereo not given) [Glycerol-3-phosphate], the LC retention time was 9.84 min.

For `OCC1OC(O)C(O)C(O)C1O` (stereo not given) [Hexose], the LC retention time was 6.94 min.

With `O=C(O)CC(C(=O)O)C(O)C(=O)O` (stereo not given) [Isocitric acid], the LC retention time was 14.5 min.

On to `CCC(C)C(N)C(=O)O` (stereo not given) [Isoleucine], for which the LC retention time was 6.3 min.

On to `CC(O)C(=O)O` (stereo not given) [Lactic Acid], for which the LC retention time is 3.36 min.

For `CC(C)CC(N)C(=O)O` (stereo not given) [Leucine], the LC retention time was 6.08 min.

With `NC(=O)C1=CN(C2OC(COP(=O)(O)OP(=O)(O)OCC3OC(n4cnc5c(N)ncnc54)C(O)C3O)C(O)C2O)C=CC1` (stereo not given) [NADH], the LC retention time was 7.99 min.

With `NC(=O)C1=CN(C2OC(COP(=O)(O)OP(=O)(O)OCC3OC(n4cnc5c(N)ncnc54)C(OP(=O)(O)O)C3O)C(O)C2O)C=CC1` (stereo not given) [NADPH], the LC retention time was 14.7 min.

Consider `NC(=O)c1ccc[n+](C2OC(COP(=O)(O)OP(=O)(O)OCC3OC(n4cnc5c(N)ncnc54)C(OP(=O)(O)O)C3O)C(O)C2O)c1` (stereo not given) [NADP], for which the LC retention time is 13.8 min.

`NC(=O)c1ccc[n+](C2OC(COP(=O)(O)OP(=O)(O)OCC3OC(n4cnc5c(N)ncnc54)C(O)C3O)C(O)C2O)c1` (stereo not given) [NAD]: the LC retention time was 10.5 min.

Regarding `C=C(OP(=O)(O)O)C(=O)O` [PEP], the LC retention time was 14.4 min.

Take `O=C(O)C(CO)OP(=O)(O)O` (stereo not given) [Phosphoglyceric acid A]: the LC retention time was 13.3 min.

As to `O=C(O)CCC(=O)O` [Succinic Acid], the LC retention time was 9.39 min.

With `O=C(CO)COP(=O)(O)O` [Triose phosphate], the LC retention time is 9.84 min.

`CC(=O)NC1C(OP(=O)(O)OP(=O)(O)OCC2OC(n3ccc(=O)[nH]c3=O)C(O)C2O)OC(CO)C(O)C1O` (stereo not given) [UDP-GlcNAc]: the LC retention time was 9.63 min.

As to `CCC(=O)OC(CC(=O)[O-])C[N+](C)(C)C` (stereo not given) [carnitine-C3], the LC retention time was 6.33 min.

As for `O=C1CC(C(=O)O)NC(=O)N1` (stereo not given) [dihydroorotic acid], the LC retention time was 4.02 min.
